Key:
[1] = system: E. multilocularis metacestode vesicles; assay: Phosphoglucose isomerase (PGI) release assay (damage-marker release) on metacestode vesicles; type: cell-based, Echinococcus multilocularis; settings: 10 μM; for PGI d5 (relative PGI release): 5 days; for PGI d12 (relative PGI release): 12 days; for activity in the PGI release assay (in words): twelve days, cut-off PGI release ≥20 %
[2] = system: E. multilocularis metacestode vesicles; assay: Metacestode vesicle viability assay (ATP, CellTiter-Glo); type: cell-based, Echinococcus multilocularis; settings: for effect on metacestode vesicle viability (in words): twelve days, cut-off viability ≤30 %
Experimental: Viability was assessed after 12 days using the same metacestode vesicles as for the PGI release assay. Triton X-100 was added to each well to a final concentration of 0.1 %. Subsequently the metacestode vesicles were broken mechanically and 50 μL of the supernatant was mixed with 50 μL of CellTiter-Glo® buffer (Promega, Dübendorf, Switzerland). Measurements were performed on a HIDEX Sense microplate reader.

[3] = overview screen, singlets, relative to 0.1 % Triton X-100, DMSO subtracted
[4] = overview screen, 10 μM, singlets, 12 days, relative to DMSO control
[5] = confirmation screen, triplicates, mean
[6] = confirmation screen, 10 μM, triplicates, mean, 12 days

Structure (SMILES) | PGI d5 (relative PGI release) [1, 3] | PGI d12 (relative PGI release) [1, 3] | Viability d12 (relative viability) [2, 4] | other results
CC(=O)Oc1ccccc1C(=O)Nc1ncc([N+](=O)[O-])s1 [nitazoxanide, reference compound] | 37.9028% | 44.5196% |  | activity in the PGI release assay (in words) ([1]; overview screen): showed activity in the PGI release assay; activity in the PGI release assay (in words) ([1]; overview screen, listed as MMV688991): active in the PGI assay after twelve days; viability at 10 µM ([2]; Echinococcus multilocularis, 288 h, overview screen, 10 μM, singlets, 12 days, relative to DMSO control, read-out: Viability d12 (relative viability)): 38.4%; effect on metacestode vesicle viability (in words) ([2]; overview screen, 10 μM): did not meet the threshold in the metacestode viability assay; effect on metacestode vesicle viability (in words) ([2]; overview screen, 10 μM, listed as MMV688991): did not reduce the metacestode vesicle viability
O=S(=O)(NCB(O)O)c1ccc(-c2nnn[nH]2)cc1C(F)(F)F [MMV1782411] | -0.527% | -17.35% | 79.3081% | 
CCCCc1ccc(-c2nc(C)c(C(=O)OC)s2)cc1 [MMV1634392] | 0.3728% | 0.05977% | 152.475% | 
COc1cc(Cc2cnc(N)nc2N)c2c(c1OC)OC(C1CC1)C=C2 (stereo not shown) [MMV1613563] | -0.539% | -1.956% | 145.38% | 
O=C1[C@H](CC[C@H](O)c2ccc(F)cc2)[C@@H](c2ccc(O)cc2)N1c1ccc(F)cc1 [MMV1581377] | -0.5323% | 22.6699% | 84.8656% | 
CC(N)C12CC3CC(CC(C3)C1)C2 (stereo not shown) [MMV637855] | 0.08745% | -0.5462% | 63.7477% | 
COc1cc(C(C(=O)NC2CCCCC2)N(C(=O)Cc2c[nH]c3ccccc23)c2ccc(C(C)C)cc2)cc(OC)c1OC (stereo not shown) [MMV1593544] | 0.03783% | 0.3627% | 100.386% | 
Cc1cccc(CC(=O)N[C@H]2CCOC2=O)c1 [MMV1579782] | 1.649% | 1.447% | 167.646% | 
CC(C)(C)c1cc(CCC(=O)N2CCC2)cc(C(C)(C)C)c1O [MMV1229204] | -1.987% | -10.8726% | 39.6611% | 
CC(C)c1cc2c(cc1S(=O)(=O)O)[C@@]1(C)CCC[C@@](C)(C(=O)O)[C@@H]1CC2 [MMV1633675] | -5.75% | -3.32% | 100.907% | 
CC(C)CCN1C(=O)C(C2=NS(=O)(=O)c3cc(NS(C)(=O)=O)ccc3N2)=C(O)[C@@H]2[C@H]3CC[C@H](C3)[C@@H]21 [MMV1782220] | 0.5402% | 0.853% | 132.239% | 
CCn1cc(C(=O)O)c(=O)c2cc(F)c(N3CCNC(C)C3)c(F)c21.Cl (stereo not shown) [MMV002350] | 0.8503% | 0.3517% |  | Viability d12 (relative viability) ([2]; 10 µM): 92.559%
N[C@@H]1CN(c2c(F)cc3c(=O)c(C(=O)O)cn([C@@H]4C[C@@H]4F)c3c2Cl)CC12CC2 [MMV1579850] | -2.37% | -5.627% | 103.25% | 
O=C(O)C[C@H]1CC[C@H](c2ccc(-c3ccc(Nc4ccc(C(F)(F)F)nc4)cn3)cc2)CC1 [MMV1580498] | 0.9992% | 1.035% | 139.746% | 
C=CCN(C(=O)OCc1ccc([N+](=O)[O-])cc1)C1CCN(CC[C@](C)(CN(C)S(=O)(=O)c2ccccc2)c2ccccc2)CC1 [MMV1782214] | 0.9992% | 3.53% | 76.726% | 
COc1c(NC(=O)[C@H]2CC[C@@H](COc3ccc([N+](=O)[O-])cc3)CC2)c(F)cc2c(=O)c(C(=O)O)cn(C3CC3)c12 [MMV1633965] | 0.7075% | -11.0947% | 49.6807% | 
NC(N)=NCCCCC(=O)Nc1cc(C(F)(F)F)cc(NC(=O)c2cc(C(=O)Nc3cc(C(F)(F)F)cc(NC(=O)CCCCN=C(N)N)c3O[C@@H]3CCNC3)ncn2)c1O[C@@H]1CCNC1 [MMV1634402] | -1.176% | 3.242% | 96.1157% | 
O=c1cc(Nc2ccc3ccccc3c2)[nH]c(=O)[nH]1 [MMV1581546] | -1.553% | -12.1764% | 58.2809% | 
CNC(=O)C1O[C@@H](n2cnc3c(NCc4cccc(I)c4)nc(Cl)nc32)[C@H](O)[C@@H]1O (stereo partly shown) [MMV1593514] | -0.4087% | 0.1534% |  | Viability d12 (relative viability) ([2]; 10 µM): 79.1378%

Structure (SMILES) | PGI d5 (relative PGI release) [1, 3] | PGI d12 (relative PGI release) [1, 3] | Viability d12 (relative viability) [2, 4] | other results
COc1cc(C)c2c(Oc3cccc(C(F)(F)F)c3)c(OC)cc(NC(C)CCCN)c2n1.O=C(O)CCC(=O)O (stereo not shown) [MMV000043] | 8.8572% | -12.8411% | 100.948% | 
CCN(CC)CCn1c(=N)n(CC(O)COc2ccc(Cl)cc2Cl)c2ccccc21 (stereo not shown) [MMV000725] | -2.18% | -13.7901% | 72.9764% | 
O=C(c1nc2c(C(F)(F)F)cc(C3CC3)cn2c1Cl)N1CCN([C@H]2CC[C@H](O)CC2)C(=O)C1 [MMV1634396] | 0.0006202% | 0.1204% | 113.417% | 
Cc1nc2ccc(Cl)cc2c(-c2ccccc2)c1CC(=O)O [MMV1580801] | 6.482% | 83.9153% | 42.503% | 
O=S(=O)(NCB(O)O)c1cc2c(Cl)ccc(Cl)c2s1 [MMV1580841] | -1.0927% | -26.0917% | 81.7436% | 
NC(=S)N/N=C/c1ncccc1N [MMV1580496] | -0.2661% | 1.095% | 58.7881% | 
CC(=O)N1c2ccccc2NC2=C(C(=O)CC(C)(C)C2)C1c1ccc(OCc2ccccc2)cc1 (stereo not shown) [MMV1580503] | 1.18% | -18.9728% | 72.2027% | 
O=C(O)c1cc(-c2ccc(Br)cc2)nc2ccc(Cl)cc12 [MMV247764] | 0.5774% | -0.4305% | 115.677% | 
Cc1onc(-c2ccccc2Cl)c1C(=O)N[C@@H]1C(=O)N2[C@@H]1SC(C)(C)[C@@H]2C(=O)O [MMV002740] | -1.463% | -24.5158% |  | Viability d12 (relative viability) ([2]; 10 µM): 55.1081%
O=S(=O)(Nc1cccc2cccnc12)c1ccccc1 [MMV1578890] | 53.5139% | 49.7638% | 2.254% | PGI d5 (relative PGI release) [1, 5]: 0.50%; PGI d12 (relative PGI release) [1, 5]: -0.0456%; Viability d12 (relative viability) [2, 6]: 68.64%
CN(C/C=C/C#CC(C)(C)C)Cc1cccc2ccccc12 [MMV1634359] | -1.48% | -21.017% | 186.198% | 
O=C(Nc1nnc(-c2ccc(Cl)cc2)o1)c1ccc(F)cc1 [MMV1782140] | -3.764% | 9.726% | 86.8653% | 
CCc1cc(CCC(=O)Nc2ccccc2O)c(=O)[nH]c1C [MMV1782106] | 1.217% | -17.9747% | 488.194% | 
CC(=O)NC[C@H]1CN(c2ccc(N3CCSCC3)c(F)c2)C(=O)O1 [MMV688756] | -1.412% | -2.526% | 97.3563% | 
CC(C)(C)c1ccc(C(Cn2cccc(C(F)(F)F)c2=O)NC2Cc3ccccc3C2)cc1 (stereo not shown) [MMV1634393] | -0.3467% | 0.3021% | 102.314% | 
COc1ccc2c(c1)cc(CNC(=O)c1cc3ccccc3o1)n2CC(=O)O [MMV1581553] | -2.902% | -25.8097% | 73.1434% | 
CCOC(=O)/C=C/[C@H](C[C@@H]1CCNC1=O)NC(=O)[C@@H](CC(=O)[C@@H](NC(=O)c1cc(C)on1)C(C)C)Cc1ccc(F)cc1 [MMV1580491] | 0.4485% | -17.2617% | 181.789% | 
Nc1c(C(=O)NCc2ccco2)c2nc3ccccc3nc2n1CCN1CCCCC1 [MMV099714] | 2.984% | 44.8288% | 63.8129% | 
Oc1cccc(C(Nc2nccs2)c2ccc3cccnc3c2O)c1 (stereo not shown) [MMV642550] | 8.475% | 88.2133% | 17.7096% | PGI d5 (relative PGI release) [1, 5]: 0.17%; PGI d12 (relative PGI release) [1, 5]: 0.81%; Viability d12 (relative viability) [2, 6]: 142.26%

— article PMC12410356 (International Journal for Parasitology: Drugs and Drug …, 2025)
